For the experiment, the target named is T1, recombinant HGFA serine protease domain (Homo sapiens, UniProt Q04756).
T1 construct: His6 tag (N); seven amino acid spacer plus TEV cleavage site (N); made in house; host or cells: High 5 insect cells (baculovirus; Sf9 for virus production)
T1 sequence (Q04756 373-655): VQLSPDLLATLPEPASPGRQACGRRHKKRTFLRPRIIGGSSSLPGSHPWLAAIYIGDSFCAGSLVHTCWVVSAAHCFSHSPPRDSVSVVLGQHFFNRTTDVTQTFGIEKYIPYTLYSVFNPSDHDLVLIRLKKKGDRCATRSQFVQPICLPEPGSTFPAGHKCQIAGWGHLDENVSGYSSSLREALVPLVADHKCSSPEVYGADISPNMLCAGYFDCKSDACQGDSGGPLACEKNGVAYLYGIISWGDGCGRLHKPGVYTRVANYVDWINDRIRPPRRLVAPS
As to the kind of experiment: Fluorescent kinetic enzyme assay of HGFA activity (Boc-QLR-AMC). Particulars: Table 2; read-out: HGFA (IC50 nM). The class given is biochemical. A digest of the protocol: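 His-tagged HGFA protease domain from baculovirus-infected High 5 cells, 6.25 nM in pH 8 Tris/NaCl/5 mM CaCl2/0.01% Triton X-100 with 2% DMSO. IC50 from four-parameter velocity fit (≥3 runs); apparent Ki by Cheng–Prusoff.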

The structures appear in SMILES notation.

What is called IC50 is the point on the concentration scale where inhibition reaches its midpoint. On to `CC(=O)N[C@H]1CC(=O)NCCCC[C@@H](C(=O)N[C@@H](CCCNC(=N)N)C(=O)c2nc3ccccc3s2)NC(=O)[C@H](Cc2ccccc2)NC1=O` [VD3112, (3S,6S,14S)-6-acetamido-N—((S)-1-(benzo[d]thiazol-2-yl)-5-guanidino-1-oxopentan-2-yl)-3-benzyl-2,5,8-trioxo-1,4,9-triazacyclotetradecane-14-carboxamide], for which the IC50 turned out to be 3170 nM.

The record behind these values is patent publication US12590123B2, “Compounds and methods for treating cancer, viral infections, and allergic conditions” (Washington University, priority 2019, dated 2026).
